Experimental data: patent publication US20050215614A1, “Substituted indoles and their use as hcv inhibitors” (Rigel Pharmaceuticals, Inc., priority 2003, published 2005)

Test system: HCV replicon
Assay: HCV Replicon Assay (luciferase, 5-2 Luc replicon cells)
Format: cell-based
Settings: 5-2 Luc replicon cells (Huh7), 24-48 hours with compound, luciferase counts
Procedure: Actively dividing 5-2 Luc replicon cells were seeded at the density of 5000-7500 cells/well in the volume of 90 μl/well into 96 well plate(s). The cells were then incubated at 37° C. and 5% CO2 for 24 hours. The 5-2 cells are replicon cells licensed from Ralf Bartenschlager (Germany) and have a self-replicating RNA molecule in the Huh7 cell; the RNA contains HCV non-structural proteins that make the self-replication possible.
Various concentrations of compounds (in the volume of 10 μl) were added into each well 24 hours after seeding the cells. The cells were incubated for another 24-48 hours before luciferase assay.
After incubating the 5-2 Luc replicon cells with the compounds for 24-48 hours, media were aspirated from each well and Bright-Glo (Promega) luciferase assay reagents were added to each well according to the manufacturer′s manual. Briefly, the Bright-Glo reagent was diluted with equal volume of PBS and an aliquote (100 μl) was added to each well. After incubating the plate at room temperature for 5 minutes, luciferase counts were taken using a luminometer.

Structure (SMILES)	Activity (concentration of inhibitory activity)
CC(C)(C)c1cc2cc(NC(=O)Cc3cccc4ccccc34)ccc2[nH]1 [Compound 5a, 2-t-Butyl-5-(naphth-1-yl-ethanoyl)aminoindole]	b (“b” indicates activity is at a concentration greater than 10 micromolar)
CC(C)(C)c1cc2cc(NC(=O)Cc3cccc([N+](=O)[O-])c3)ccc2[nH]1 [Compound 5b, 2-t-Butyl-5-(3-nitrophenylethanoyl)aminoindole]	b (“b” indicates activity is at a concentration greater than 10 micromolar)
CC(C)(C)c1cc2cc(NC(=O)C3CCCC3)ccc2[nH]1 [Compound 5c, 2-t-Butyl-5-(cyclopentanecarbonyl)aminoindole]	a (“a” indicates inhibitory activity at a concentration of less than 10 micromolar)
CC(C)(C)c1cc2cc(NC(=O)C3(c4ccc(Cl)cc4)CCCC3)ccc2[nH]1 [Compound 5d, 2-t-Butyl-5-(1-(4chlorophenyl)-1-cyclopentanecarbonyl)aminoindole]	b (“b” indicates activity is at a concentration greater than 10 micromolar)
CC(C)(C)c1cc2cc(NC(=O)c3c(F)cccc3F)ccc2[nH]1 [Compound 5e, 2-t-Butyl-5-(2′,6′-difluorophenylcarbonyl)aminoindole]	a (“a” indicates inhibitory activity at a concentration of less than 10 micromolar)
CC(C)(C)c1cc2cc(NC(=O)c3ccc(Cl)cc3Cl)ccc2[nH]1 [Compound 5f, 2-t-Butyl-5-(2′,4′-dichlorophenylcarbonyl)aminoindole]	a (“a” indicates inhibitory activity at a concentration of less than 10 micromolar)
Cc1ccsc1C(=O)Nc1ccc2[nH]c(C(C)(C)C)cc2c1 [Compound 5g, 2-t-Butyl-5-(3-methylthiophene-2-carbonyl)aminoindole]	a (“a” indicates inhibitory activity at a concentration of less than 10 micromolar)
CC(C)(C)c1cc2cc(NC(=O)C(Cl)Cl)ccc2[nH]1 [Compound 5h, 2-t-Butyl-5-dichloroacetamidoindole]	a (“a” indicates inhibitory activity at a concentration of less than 10 micromolar)
Cc1cn(C(=O)c2c(Cl)cccc2Cl)c2ccc(NC(=O)C3CCCC3)cc12 [Compound 9a, 5-(Cyclopentanecarbonyl)amino-1-(2′,6′-dichlorobenzoyl)-3-methylindole]	a (“a” indicates inhibitory activity at a concentration of less than 10 micromolar)
CCCC(=O)Nc1ccc2c(c1)c(C)cn2C(=O)c1c(Cl)cccc1Cl [Compound 9b, 1-(2′,6′-Dichlorobenzoyl)-3-methyl-5-(n-propanecarbonyl)aminoindole]	a (“a” indicates inhibitory activity at a concentration of less than 10 micromolar)
Cc1cn(C(=O)c2c(Cl)cccc2Cl)c2ccc(NC(=O)C3CCC3)cc12 [Compound 9c, 5-(Cyclobutanecarbonyl)amino-1-(2′,6′-dichlorobenzoyl)-3-methylindole]	a (“a” indicates inhibitory activity at a concentration of less than 10 micromolar)
Cc1cn(C(=O)c2c(Cl)cccc2Cl)c2ccc(NC(=O)C3CC3)cc12 [Compound 9d, 5-(Cyclopropanecarbonyl)amino-1-(2′,6′-dichlorobenzoyl)-3-methylindole]	a (“a” indicates inhibitory activity at a concentration of less than 10 micromolar)
CCCCC(=O)Nc1ccc2c(c1)c(C)cn2C(=O)c1c(Cl)cccc1Cl [Compound 9e, 5-(n-Butanecarbonyl)amino-1-(2′,6′-dichlorobenzoyl)-3-methylindole]	a (“a” indicates inhibitory activity at a concentration of less than 10 micromolar)
C/C=C/C(=O)C(=O)Nc1ccc2c(c1)c(C)cn2C(=O)c1c(Cl)cccc1Cl [Compound 9f, 5-(trans-Crotonylcarbonyl)amino-1-(2′,6′-dichlorobenzoyl)-3-methylindole]	a (“a” indicates inhibitory activity at a concentration of less than 10 micromolar)
Cc1c(C)n(C(=O)c2c(Cl)cccc2Cl)c2ccc(NC(=O)C3CCCCC3)cc12 [Compound 13a, 5-(Cyclohexanecarbonyl)amino-1-(2′,6′-dichlorobenzoyl)-2,3-dimethylindole]	a (“a” indicates inhibitory activity at a concentration of less than 10 micromolar)
Cc1c(C)n(C(=O)c2c(Cl)cccc2Cl)c2ccc(NC(=O)C3CCCC3)cc12 [Compound 13b, 5-(Cyclopentanecarbonyl)amino-1-(2′,6′-dichlorobenzoyl)-2,3-dimethylindole]	a (“a” indicates inhibitory activity at a concentration of less than 10 micromolar)
Cc1c(C)n(C(=O)c2c(Cl)cccc2Cl)c2ccc(NC(=O)C3CCC3)cc12 [Compound 13c, 5-(Cyclobutanecarbonyl)amino-1-(2′,6′-dichlorobenzoyl)-2,3-dimethylindole]	a (“a” indicates inhibitory activity at a concentration of less than 10 micromolar)
Cc1c(C)n(C(=O)c2c(Cl)cccc2Cl)c2ccc(NC(=O)C3CC3)cc12 [Compound 13d, 5-(Cyclopropanecarbonyl)amino-1-(2′,6′-dichlorobenzoyl)-2,3-dimethylindole]	a (“a” indicates inhibitory activity at a concentration of less than 10 micromolar)
CCCCC(=O)Nc1ccc2c(c1)c(C)c(C)n2C(=O)c1c(Cl)cccc1Cl [Compound 13e, 5-(n-Butanecarbonyl)amino-1-(2′,6′-dichlorobenzoyl)-2,3-dimethylindole]	a (“a” indicates inhibitory activity at a concentration of less than 10 micromolar)
Cc1cc2cc(NC(=O)C3CCCCC3)ccc2n1C(=O)c1c(Cl)cccc1Cl [Compound 16a-2, 5-Cyclohexanecarbonylamino-1-(2′,6′-dichlorobenzoyl)-2-methylindole]	a (“a” indicates inhibitory activity at a concentration of less than 10 micromolar)
Cc1cc2cc(NC(=O)C3CCC3)ccc2n1C(=O)c1c(Cl)cccc1Cl [Compound 16a-3, 5-Cyclobutanecarbonylamino-1-(2′,6′-dichlorobenzoyl)-2-methylindole]	a (“a” indicates inhibitory activity at a concentration of less than 10 micromolar)
Cc1cc2cc(NC(=O)C3CC3)ccc2n1C(=O)c1c(Cl)cccc1Cl [Compound 16a-4, 5-Cyclopropanecarbonylamino-1-(2′,6′-dichlorobenzoyl)-2-methylindole]	a (“a” indicates inhibitory activity at a concentration of less than 10 micromolar)
Cc1cc2cc(NC(=O)C(C)C)ccc2n1C(=O)c1c(Cl)cccc1Cl [Compound 16a-5, 1-(2′,6′-Dichlorobenzoyl)-5-(2-methylpropanoyl)amino-2-methylindole]	a (“a” indicates inhibitory activity at a concentration of less than 10 micromolar)
CCC(C)C(=O)Nc1ccc2c(c1)cc(C)n2C(=O)c1c(Cl)cccc1Cl (stereo not drawn) [Compound 16a-6, 1-(2′,6′-Dichlorobenzoyl)-5-(2-methylbutanoyl)amino-2-methylindole]	a (“a” indicates inhibitory activity at a concentration of less than 10 micromolar)
